Data taken from US20030113385A1, “Use of combinations of active agents consisting of antimicrobially active substances and plant extracts containing terpene in veterinary medicine” (Boehringer Ingelheim Vetmedica GmbH, priority 1998, published 2003).

Tests used:
Staphylococcus aureus [1] = experiment: MIC on growth of Staphylococcus aureus in milk, microtitre plates, fluorometric; type: cell-based; conditions: for MIC: Staphylococcus aureus, read-out: average MIC (+standard deviation)
Method: (§1) The sensitivity tests and the experiments carried out with combinations of active agents—using the so-called Checkerboard design—in broth (nutrient medium) and milk, were carried out using microtitre plates. Three capsule-positive and three capsule-negative strains of Staphylococcus aureus were used. The so-called MIC value was determined by fluorometric methods (in milk).
(§2) The concentration of the standard solution of the tea tree oil used was 4% vol/vol.
(§3) The highest concentration used in the tests was 1/10th of the original standard solution, i.e. 0.4 vol-%.
2 Effect of tea tree oil on the growth of Staphylococcus aureus in normal milk. Each strain was tested four times.
(§4) 3 Susceptibility of Staphylococcus aureus to selected antibacterial agents in nutrient medium (ISB) and milk. […] Each strain was tested […].

Staphylococcus aureus [2] = experiment: MIC on growth of Staphylococcus aureus in nutrient solution (ISB), microtitre plates, turbidity; type: cell-based; conditions: for MIC: Staphylococcus aureus, read-out: average MIC (+standard deviation)
Method: as §1, §2, §3
1 Effect of tea tree oil (Ttoil) on the growth of Staphylococcus aureus in nutrient solution (ISB).
The results are given as the average minimum inhibitory concentration from four repeats
as §4

[3] = three capsule negative Staph. aureus strains
[4] = three capsule positive Staph. aureus strains

Molecule | MIC range (in brackets) (Staphylococcus aureus [1]; [3]) | average MIC (+standard deviation) (Staphylococcus aureus [1]; [3]) [µg/mL] | MIC range (in brackets) (Staphylococcus aureus [1]; [4]) | average MIC (+standard deviation) (Staphylococcus aureus [1]; [4]) [µg/mL] | MIC range (in brackets) (Staphylococcus aureus [2]; [3]) | average MIC (+standard deviation) (Staphylococcus aureus [2]; [3]) [µg/mL] | MIC range (in brackets) (Staphylococcus aureus [2]; [4]) | average MIC (+standard deviation) (Staphylococcus aureus [2]; [4]) [µg/mL] | MIC (Staphylococcus aureus [1]; [3]) [µg/mL] | MIC (Staphylococcus aureus [1]; [4]) [µg/mL] | MIC (Staphylococcus aureus [2]; [3]) [µg/mL] | MIC (Staphylococcus aureus [2]; [4]) [µg/mL]
spiramycin | (6.25-50) μg/ml | 25.52 ± 4.82 | (12.5-50) μg/ml | 25 ± 3.77 | (10-20) μg/ml | 15 ± 1.5 | (10-20) μg/ml | 15.83 ± 1.49 |  |  |  | 
CC1(C)S[C@@H]2[C@H](NC(=O)[C@H](N)c3ccccc3)C(=O)N2[C@H]1C(=O)O [Ampicillin, ampicillin] |  |  |  |  |  |  |  |  | 0.104 ± 0.009 | 0.12 ± 0.005 | 0.198 ± 0.018 | 0.188 ± 0.019
CC(=O)OCC1=C(C(=O)O)N2C(=O)[C@@H](NC(=O)Cc3cccs3)[C@H]2SC1 [Cephalothin, cephalothin] | (0.125-0.25) μg/ml |  |  |  | (0.125-0.25) μg/ml |  | (0.125-0.25) μg/ml |  | 0.167 ± 0.018 | 0.25 | 0.188 ± 0.019 | 0.188 ± 0.019
CC1(C)S[C@@H]2[C@H](NC(=O)Cc3ccccc3)C(=O)N2[C@H]1C(=O)O [Penicillin G, penicillin G] | (0.013-0.05) μg/ml | 0.031 ± 0.005 | (0.013-0.025) μg/ml | 0.022 ± 0.002 | (0.025-0.05) μg/ml | 0.033 ± 0.004 | (0.025-0.05) μg/ml | 0.035 ± 0.004 |  |  |  | 
